Data reported in PMC7247425, “MRP1-Collateral Sensitizers as a Novel Therapeutic Approach in Resistant Cancer Therapy: An In Vitro and In Vivo Study in Lung Resistant Tumor” (International Journal of Molecular Sciences, 2020).

Experiments:
A549/DX cells [1] = assay: Cell viability (MTT) of A549/DX cells at 72 h, alone and in co-administration; assay type: cell-based, human
Experimental: Indeed, the accurate detection of cell viability in A549 cells was critical in calculating the SR in a reliable manner.
First, we wondered if there was a correlation between the inhibition of the MRP1 protein and the CS properties of the compounds.
(§1) The determination of cell growth was performed using an MTT assay at 24 or 72 h. On day 1, 10,000 cells/well were seeded into 96-well plates in a volume of 100 μL. […] In all the experiments, the various drug solvents (ethanol, DMSO) were added in each control to evaluate a possible solvent cytotoxicity. After the established incubation time with drugs, 10 μL MTT (0.5 mg/mL) was added to each well, and after 3 h incubation at 37°C, the supernatant was removed. The formazan crystals were solubilized using 100 μL of DMSO and the absorbance values at 570 and 630 nm were determined on the microplate reader Victor 3 from PerkinElmer Life Sciences. The absorbance of the untreated cells was considered equal to 100% cell viability; the viability of cells measured in each experimental condition was expressed as a percentage of viable cells in the considered condition vs. the viability of the untreated cells.

A549/DX cells [2] = assay: In vivo tumor growth of A549/DX xenografts; design: species or system nu/nu BALB/C mice; settings: A549/DX xenografts, 50 mg/kg cis-Pt i.p.
Experimental: In order to translate in vivo the capability of F397, F400, and F421 to act as “sensitizers”, A549/DX cells were implanted in immune-deficient BALB/C mice, and once the tumor reached the volume of 50 mm^3, the mice were randomized and treated […] with the vehicle (saline solution) and/or cis-Pt.
(§2) Here, 1 × 10^6 A549/DX cells were mixed with 100 μl Matrigel implanted in 6-week-old female nu/nu BALB/C mice (Charles River Laboratories Italia, Calco, Italy), housed (5 per cage) under 12 h light/dark cycle, with food and drinking provided ad libitum. Tumor growth was measured daily by caliper, according to the equation (LxW2)/2, where L = tumor length and W = tumor width. When the tumor reached the volume of 50 mm^3, mice (n = 8/group) were randomized and treated as reported in the following groups, treated on day 1, 7, and 14 after randomization: (1) vehicle group (ctrl), treated intraperitoneally (i.p.) with 100 µL saline solution; (2) cis-Pt group, treated i.p. with 50 mg/kg cis-Pt, dissolved in 100 µL water/10% DMSO solution, according to Kopecka et al., 2015 [53]; (3) F397 group, treated i.p. with 750 nmoles of the compound, dissolved in 100 µL water/10% DMSO solution, corresponding to the maximum tolerated dose (not shown and Table 2); (4) F421 group, treated i.p. with 750 nmoles of the compound, dissolved in 100 µL water/10% DMSO solution i.p, corresponding to the maximum tolerated dose (not shown and Table 2); (5) cis-Pt/F397 group, treated i.p. with 50 mg/kg Cis-Pt and 750 nmoles of F397; (6) cis-Pt/F421 group, treated i.p. with 50 mg/kg cis-Pt and 750 nmoles of F421; (7) MK571 group, treated i.p. with 3 mg/kg MK571 dissolved in 100 µL water/10% DMSO solution, according to Jones et al., 1989 [56]; (8) MK571/F397 group, treated i.p. with 3 mg/kg MK571 and 750 nmoles of F397; (9) MK571/F421 group, treated i.p. with 3 mg/kg MK571 and 750 nmoles of F421. Tumor volumes were monitored daily. Animals were euthanized at day 21 after randomization with zolazepam (0.2 mL/kg) and xylazine (16 mg/kg). Lactate dehydrogenase (LDH), aspartate aminotransferase (AST), alanine aminotransferase (ALT), alkaline phosphatase (AP), creatinine, and creatine phosphokinase (CPK) were measured on blood samples collected immediately after euthanasia, using commercially available kits from Beckman Coulter Inc. (Beckman Coulter, Miami, FL, USA).

[3] = Hemato-chemical parameters and tolerability in treated mice; assay type: in vivo; settings: blood after euthanasia day 21; i.p. treatment day 1, 7, 14; means ± SD, n = 8
Experimental: as §2

MDCK-MRP1 cells = assay: Antiproliferative MTT assay in MDCK-wt and MDCK-MRP1 cells, selectivity ratio; assay type: cell-based, canine; settings: EC50 of MDCK cells/EC50 of MDCK-MRP1 cells
Experimental: Within the search for novel CS agents acting on MRP1 proteins, the compounds selected among the different series of sigma-2 ligands were investigated for their activity at MRP1, paralleled with their cytotoxicity in the parental Madin–Darby canine kidney (MDCK-wt) cells and in the MDR-derived cells (MDCK-MRP1) for the determination of their SR (EC50 parental cells/EC50 MDR cells). The activity at the MRP1 pump was determined measuring the transport inhibition of the pro-fluorescent probe Calcein-AM, an MRP1 substrate, in the MRP1-overexpressing cell line (MDCK-MRP1) by the in vitro biological assay usually performed to study an MRP1 interaction. […] The SR was measured as the EC50 of the MDCK cells/EC50 of the MDCK-MRP1 cells.
as §1

MRP1 = MRP1 (Homo sapiens, UniProt P33527); assay: Calcein-AM transport inhibition in MDCK-MRP1 cells (MRP1 activity)
MRP1, sequence (P33527 whole entry): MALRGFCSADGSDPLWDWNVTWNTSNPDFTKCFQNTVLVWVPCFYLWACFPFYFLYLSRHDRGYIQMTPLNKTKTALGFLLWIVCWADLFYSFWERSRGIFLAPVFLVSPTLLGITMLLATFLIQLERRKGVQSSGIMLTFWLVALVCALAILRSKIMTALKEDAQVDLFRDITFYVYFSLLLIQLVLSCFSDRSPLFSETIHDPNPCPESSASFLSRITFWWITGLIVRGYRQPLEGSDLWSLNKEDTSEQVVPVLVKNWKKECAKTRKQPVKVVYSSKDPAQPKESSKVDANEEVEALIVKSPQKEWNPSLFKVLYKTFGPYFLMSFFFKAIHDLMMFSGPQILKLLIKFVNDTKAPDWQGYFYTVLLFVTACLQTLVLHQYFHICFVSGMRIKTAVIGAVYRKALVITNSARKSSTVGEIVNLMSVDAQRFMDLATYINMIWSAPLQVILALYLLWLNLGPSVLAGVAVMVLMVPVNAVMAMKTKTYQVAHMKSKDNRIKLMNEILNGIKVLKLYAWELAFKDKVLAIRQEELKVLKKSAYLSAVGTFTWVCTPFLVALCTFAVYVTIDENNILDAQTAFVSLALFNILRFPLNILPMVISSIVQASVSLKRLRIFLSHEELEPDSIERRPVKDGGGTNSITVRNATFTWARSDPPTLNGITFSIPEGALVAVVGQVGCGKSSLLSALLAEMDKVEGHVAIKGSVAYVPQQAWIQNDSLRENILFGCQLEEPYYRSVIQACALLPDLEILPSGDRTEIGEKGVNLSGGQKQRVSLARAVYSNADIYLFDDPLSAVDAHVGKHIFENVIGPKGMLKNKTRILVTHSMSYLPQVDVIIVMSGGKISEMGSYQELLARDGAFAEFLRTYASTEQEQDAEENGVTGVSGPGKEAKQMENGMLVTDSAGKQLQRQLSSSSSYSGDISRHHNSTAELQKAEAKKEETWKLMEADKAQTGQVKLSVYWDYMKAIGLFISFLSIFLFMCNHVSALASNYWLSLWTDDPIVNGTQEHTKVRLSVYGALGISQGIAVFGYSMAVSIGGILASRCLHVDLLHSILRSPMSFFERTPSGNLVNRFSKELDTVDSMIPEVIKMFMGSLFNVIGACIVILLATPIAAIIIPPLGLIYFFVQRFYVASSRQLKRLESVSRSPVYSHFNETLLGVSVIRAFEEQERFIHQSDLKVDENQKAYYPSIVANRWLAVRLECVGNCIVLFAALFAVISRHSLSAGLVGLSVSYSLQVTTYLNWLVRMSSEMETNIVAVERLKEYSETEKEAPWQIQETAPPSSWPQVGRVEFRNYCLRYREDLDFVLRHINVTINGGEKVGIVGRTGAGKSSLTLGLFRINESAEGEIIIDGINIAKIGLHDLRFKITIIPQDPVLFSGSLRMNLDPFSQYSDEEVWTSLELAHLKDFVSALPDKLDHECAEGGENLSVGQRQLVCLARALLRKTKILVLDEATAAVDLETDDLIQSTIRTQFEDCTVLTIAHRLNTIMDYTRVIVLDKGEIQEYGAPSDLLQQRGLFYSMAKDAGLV
Experimental: Each cell line (30,000 cells per well) was seeded into a black CulturePlate 96/well plate with a 100 μL medium and allowed to become confluent overnight. […] In these experimental conditions, the Calcein cell accumulation in the absence and in the presence of the tested compounds was evaluated and the fluorescence basal level was estimated with the untreated cells. In treated wells, the increase in fluorescence with respect to the basal level was measured. EC50 values were determined by fitting the fluorescence increase percentage vs. log(dose).

With `N.N.[Cl][Pt][Cl]` [Cis-Pt, cis-platinum, reference compound] as the compound, how does the “Sensitivity to cis-Pt co-administrated with MK571” value (A549/DX cells [1]; cis-Pt 25 μM + MK571 25 μM) read?
Its value is “restored when co-administrated with MK571”.

And the “Tumor growth, cis-Pt alone” value (A549/DX cells [2])?
Its value is “resistance of A549/DX against the standard chemotherapy regimen”.

What about the ALT [3] of the same compound?
The ALT was 41 ± 9 U/L.

What about the AP [3] of the same compound?
The AP was 129 ± 14 U/L.

What about the AST [3] of the same compound?
The AST was 91 ± 34 U/L.

What about the CPK [3] of the same compound?
Its CPK is 259 ± 98 U/L.

What about the LDH [3] of the same compound?
Its LDH is 7092 ± 542 U/L.

Which “Cytotoxicity / antiproliferative effect alone” value (A549/DX cells [1]; 25 μM alone) does the source give for `CN(C)C(=O)CCSC(SCCC(=O)O)c1cccc(/C=C/c2ccc3ccc(Cl)cc3n2)c1` (stereo not drawn) [MK571, reference compound] here?
Its value is “not cytotoxic”.

What about the ALT [3] of the same compound?
Its ALT is 41 ± 7 U/L.

What about the AP [3] of the same compound?
Its AP is 117 ± 33 U/L.

And the AST [3]?
The AST was 101 ± 33 U/L.

And the CPK [3]?
The CPK was 334 ± 81 U/L.

What about the LDH [3] of the same compound?
Its LDH is 7141 ± 927 U/L.

Which results are given for `Fc1ccc(-n2cc(CCCCN3CCC4(CC3)OCc3ccccc34)c3ccccc32)cc1` [Siramesine, siramesine, reference compound]?
SR (selectivity ratio) (MDCK-MRP1 cells): 0.56; EC50 (MRP1): 23.2 ± 4.5 µM
